Test results taken from patent publication US20190169140A1, “IDO1 INHIBITOR AND PREPARATION METHOD AND APPLICATION THEREOF” (SHANDONG LUYE PHARMACEUTICAL CO., LTD., priority 2016, published 2019).

Assays:
[1] = target: T1, recombinant human IDO1 enzyme (Homo sapiens, UniProt P14902); assay: Test of hIDO1 for enzymatic activity in vitro (NFK Green fluorescence); assay type: biochemical
T1 construct: purchased NTRC (Netherlands Translational Research Center) NTRC-hIDO-10K
Protocol: 1. Test of hIDO1 for Enzymatic Activity In Vitro
1.1 Purpose of Experiment:
Changes in production of NFK, an IDO1 enzymatic metabolite were detected with NFK Green™ fluorescent molecules. With an IC50 value of a compound as an index, an inhibitory effect of the compound on recombinant human IDO1 enzyme was evaluated.
The compound was diluted with dimethyl sulfoxide (DMSO) to 1 mM, with 10 gradients, each 3-fold dilution, in duplicate. 48 μL of 50 mM phosphate buffer, having pH of 6.5, was transferred by the Bravo automatic liquid processing platform to the compound plate. Then 2 μL of an already diluted compound/DMSO solution was added. After even mixing, 10 μL of the resultant mixture was transferred to the enzymatic reaction plate.
IDO1 enzyme was diluted to 20 nM in a reaction buffer (50 mM phosphate buffer with pH of 6.5, 0.1% of Tween-20, 2% of glycerol, 20 mM ascorbic acid, 20 μg/ml catalase, and 20 μM methylene blue), 20 μL of the diluted IDO1 enzyme was transferred to the enzymatic reaction plate, and incubated at 23° C. for 30 minutes. 10 μL of 400 μM L-type tryptophan substrate was added to start reaction. The incubation lasted at 23° C. for 90 minutes. 10 μL of NFK Green™ fluorescent dye was added. The resultant mixture was sealed with the plate sealing film. After incubation at 37° C. for 4 hours, an Envision multi-functional plate reader was used for reading (Ex 400 nm/Em 510 nm).
A reference well to which the IDO1 enzyme was added but no compound was added was set to have an inhibition rate of 0%, and a reference well to which no IDO1 enzyme was added was set to have an inhibition rate of 100%. Data was analyzed with XLFit 5 to calculate an IC50 value of the compound.

[2] = Test for permeability across Caco2; assay type: in vitro ADME; settings: human, Caco-2
Protocol: 2. Test for Permeability Across Caco2
A sample for test was dissolved in dimethyl sulfoxide (DMSO) or other suitable solvents, to be prepared into 10 mM stock solution. A suitable internal standard
Fenoterol, propranolol, and digoxin acted as low-permeability control, high-permeability control, and P-gp (P-glycoprotein) substrate, respectively, in the present research. The stock solutions of these compounds were prepared with DMSO, stocked at 2-8° C., and valid for use within 3 months.
In the present project, a Hank's balanced salt buffer containing 10 mM HEPES was used as a transport buffer.
Caco-2 cells were cultivated using MEM culture media (Minimum Essential Media), with a culture condition of 37±1° C., 5% CO2, and saturated relative humidity. Afterwards, the cells were inoculated into a BD Transwell-96-well plate, with an inoculation density of 1×10^5 cells/cm^2, then the cells were placed in a carbon dioxide incubator to be incubated for 21-28 days, and then used for a transport experiment.
The sample for test and digoxin with donation concentration of 2 μM were administered in two directions (direction A-B and direction B-A), each in duplicate. Fenoterol and propranolol each with test concentration of 2 μM were administered in a single direction (direction A-B), each in duplicate.
A solution to be used was placed in a 37±1° C. water bath kettle to be pre-incubated for 30 minutes. The donor solution and the receiver solution were respectively added to corresponding sides of well of cell plate (to each apical sides and each basolateral sides, 75 μL and 250 μL of samples were added respectively), and experiment of bidirectional transport was started. After addition of the samples, the cell plate was placed in a 37±1° C., 5% CO2 incubator with saturated relative humidity to be incubated for 120 minutes.
The samples were all centrifuged at 3220 g for 10 minutes after being shaken in a vortex manner. A suitable volume of a supernatant was transferred to a sample analyzing plate. If analysis was not carried out immediately after the plate was sealed, the plate was stored at 2-8° C. The analysis was carried out through a method of LC/MS/MS.
The sample for test, the fenoterol control, propranolol control, and digoxin were analyzed in a semiquantitative manner, and specific values of analytes to a peak area of the internal standard were taken as concentration of the controls.

[3] = target: T2, CYP3A4 (Homo sapiens, UniProt P08684); assay: Inhibition on human liver microsome CYP3A4; assay type: in vitro ADME; settings: human liver microsomes; for IC50: 5-in-1 probe substrate
T2 construct: tissue Corning Inc. or XenoTech, LLC. or other suppliers; host or cells: mixed human liver microsomes
Protocol: The research project aimed at evaluating inhibitory ability of a sample for test on human liver microsome cytochrome P450 isozymes (CYP1A2, CYP2C9, CYP2C19, CYP2D6, and CYP3A4) with use of a 5-in-1 probe substrate for CYP isozymes.
Mixed human liver microsomes (HLM) were purchased from Corning Inc. (Steuben, N.Y., USA) or XenoTech, LLC. (Lenexa, Kans., USA) or other suppliers, and stored in a condition below −70° C. before use.
Diluted working solutions of the sample for test in serial concentrations were added to an incubation system containing the human liver microsomes, probe substrate, and accessory factors of a cycling system, and a control containing no sample for test but a solvent was taken as a control for enzymatic activity (100%). Concentration of metabolites generated by the probe substrate in the sample was measured with a method of liquid chromatography-tandem mass spectrometry (LC-MS/MS). Nonlinear regression analysis of mean percentage activity vs concentration of the sample for test was carried out using SigmaPlot (V.11). An IC^50 value was calculated through a three-parameter or four-parameter inflection logarithmic equation.

[4] = Pharmacokinetics experiment of mice in vivo, single intravenous injection; parameters: species or system male CD-1 mice; settings: Mouse PK, IV 1 mg/kg; for AUC(0-inf) / AUC(0-t) / Vd / clearance / half-life: male, CD-1, plasma
Protocol: The present experiment aimed at researching status of pharmacokinetics of a sample for test in plasma of male CD-1 mice after single intravenous injection.
Three animals in an intravenous group were intravenously injected with the sample for test by 1 mg/kg, and a formulation was 0.2 mg/mL settled solution of 5% DMSO/95% (10% HP-β-CD). 5 minutes, 15 minutes, 30 minutes, 1 hour, 2 hours, 4 hours, 6 hours, 8 hours, and 24 hours after the administration, blood was collected and prepared into a plasma specimen, with an anticoagulant of EDTA-K2. Plasma concentration data was obtained by analyzing the specimen through LC-MS/MS.
The plasma drug concentration data was processed with a non-compartment model using WinNonlin™ Version 6.3 (Pharsight, Mountain View, Calif.) pharmacokinetics software. Following pharmacokinetics parameters were calculated using a log-linear trapezoidal method: elimination phase half-life (T1/2), apparent volume of distribution (Vdss), and clearance rate (CL), mean retention time of drug in body from point 0 to end time point (MRT0-last), mean retention time of drug in body from point 0 to infinite time (MRT0-inf), area under a time-plasma concentration curve from point 0 to end time point (AUC0-last), area under a time-plasma concentration curve from point 0 to infinite time (AUC0-inf), and initial concentration (C0).

T1 sequence (P14902 whole entry): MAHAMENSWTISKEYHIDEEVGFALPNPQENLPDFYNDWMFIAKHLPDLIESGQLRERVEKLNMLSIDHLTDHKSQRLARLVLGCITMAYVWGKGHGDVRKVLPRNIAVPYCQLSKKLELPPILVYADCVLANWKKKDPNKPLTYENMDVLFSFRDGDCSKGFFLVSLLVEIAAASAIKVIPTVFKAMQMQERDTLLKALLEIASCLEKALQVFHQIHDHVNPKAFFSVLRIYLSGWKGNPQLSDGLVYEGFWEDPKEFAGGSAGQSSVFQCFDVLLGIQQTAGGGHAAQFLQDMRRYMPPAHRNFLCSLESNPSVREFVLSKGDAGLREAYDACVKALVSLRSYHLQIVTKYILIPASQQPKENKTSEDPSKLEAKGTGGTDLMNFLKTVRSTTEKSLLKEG
T2 sequence (P08684 whole entry): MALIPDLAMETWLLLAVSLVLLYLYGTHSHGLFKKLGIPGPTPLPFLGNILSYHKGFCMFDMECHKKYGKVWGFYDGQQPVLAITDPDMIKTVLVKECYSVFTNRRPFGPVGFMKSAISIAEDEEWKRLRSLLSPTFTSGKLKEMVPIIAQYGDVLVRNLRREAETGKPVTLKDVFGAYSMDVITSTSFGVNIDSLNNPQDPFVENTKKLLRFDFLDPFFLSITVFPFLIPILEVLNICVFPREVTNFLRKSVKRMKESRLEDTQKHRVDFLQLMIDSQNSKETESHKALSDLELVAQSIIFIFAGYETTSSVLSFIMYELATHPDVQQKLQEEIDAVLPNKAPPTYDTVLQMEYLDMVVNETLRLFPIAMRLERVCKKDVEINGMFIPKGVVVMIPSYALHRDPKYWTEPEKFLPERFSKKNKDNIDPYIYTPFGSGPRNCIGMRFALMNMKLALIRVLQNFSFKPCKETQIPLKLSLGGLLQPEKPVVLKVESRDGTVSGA

Compound	IC50 [1] [nM]	Papp A→B at 120 min, 2 µM [2] [×10⁻⁶ cm/s]	Papp B→A at 120 min, 2 µM [2] [×10⁻⁶ cm/s]	IC50 [3] [nM]	AUC(0-inf) [4] [µM·h]	AUC(0-t) [4] [µM·h]	Vd [4] [L/kg]	clearance [4] [mL/min/kg]	half-life [4] [h]	inhibiting effect on CYP3A4 in words [3]	Conc. (8 h) ([4]; plasma, 8 h)
NS(=O)(=O)NCCOc1nonc1/C(=N/O)Nc1ccc(F)c(Br)c1 [Compound 0015]	115	–	–	–	–	–	–	–	–	–	–
NS(=O)(=O)NCCSc1nonc1/C(=N/O)Nc1ccc(F)c(Br)c1 [Compound 0117]	26.2	2.97	12.2	–	–	–	–	–	–	–	–
CC(=O)NCCSc1nonc1/C(=N/O)Nc1ccc(F)c(Br)c1 [Compound 0227]	59.3	–	–	39200	0.628	0.624	2.66	64.2	0.867	–	–
NC(=O)NCCSc1nonc1/C(=N/O)Nc1ccc(F)c(Br)c1 [Compound 0231]	42.2	2.58	20.1	> 50000	0.881	0.852	4.85	55.1	2.44	relatively weak effect	8.16/ND nM
NS(=O)(=O)NCCNc1nonc1C(=NO)Nc1ccc(F)c(Br)c1 [Compound 360, INCB024360, reference compound]	–	0.39	19.6	–	–	–	–	–	–	–	–
